Data: PubChem BioAssay AID330 (DTP/NCI, 2004)
“And” between values parts separate entries of the source, which are not always exact repeats. Equal entries are not always repeated. Toxic doses and inconclusive results are not listed.

Tested on: P388 leukemia ip, CD2F1 mice, survival T/C
Experiment: NCI In Vivo Anticancer Drug Screen. Data for tumor model P388 Leukemia (intraperitoneal) in CD2F1 (CDF1) mice
Settings: endpoint: median survival time, higher = longer survival
How it was run: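 Mice carrying the transplanted tumor received test compound or vehicle. Survival was recorded in each group, and the value is the treated-group measurement divided by that of the vehicle-treated control group.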

[1] = dose: 50.0 mg/kg/injection, schedule: Q01DX009 (ip), vehicle: saline with Tween-80
[2] = dose: 100.0 mg/kg/injection, schedule: Q01DX009 (ip), vehicle: saline with Tween-80
[3] = dose: 200.0 mg/kg/injection, schedule: Q01DX009 (ip), vehicle: saline with Tween-80
[4] = dose: 60.0 mg/kg/injection, schedule: Q01DX005 (ip), vehicle: Klucel (hydroxypropylcellulose) (HPC)
[5] = dose: 120.0 mg/kg/injection, schedule: Q01DX005 (ip), vehicle: Klucel (hydroxypropylcellulose) (HPC)
[6] = dose: 240.0 mg/kg/injection, schedule: Q01DX005 (ip), vehicle: Klucel (hydroxypropylcellulose) (HPC)
[7] = dose: 50.0 mg/kg/injection, schedule: Q01DX005 (ip), vehicle: saline with Tween-80
[8] = dose: 100.0 mg/kg/injection, schedule: Q01DX005 (ip), vehicle: saline with Tween-80
[9] = dose: 200.0 mg/kg/injection, schedule: Q01DX005 (ip), vehicle: saline with Tween-80

Q: For `COc1cc2c(c(OC)c1OC)-c1ccc(=O)c(OC)cc1C=CC2`, which T/C (dose: 2.5 mg/kg/injection, schedule: Q01DX009 (ip), vehicle: Klucel (hydroxypropylcellulose) (HPC)) is on record?
A: The T/C was 100 % of control.

Q: And the T/C (dose: 5.0 mg/kg/injection, schedule: Q01DX009 (ip), vehicle: Klucel (hydroxypropylcellulose) (HPC))?
A: Its T/C is 106 % of control.

Q: What about the T/C (dose: 10.0 mg/kg/injection, schedule: Q01DX009 (ip), vehicle: Klucel (hydroxypropylcellulose) (HPC)) of the same molecule?
A: The T/C was 104 % of control and 108 % of control.

Q: What about the T/C (dose: 20.0 mg/kg/injection, schedule: Q01DX009 (ip), vehicle: Klucel (hydroxypropylcellulose) (HPC)) of the same molecule?
A: The T/C was 103 % of control and 109 % of control.

Q: What about the T/C (dose: 40.0 mg/kg/injection, schedule: Q01DX009 (ip), vehicle: Klucel (hydroxypropylcellulose) (HPC)) of the same molecule?
A: Its T/C is 106 % of control and 123 % of control.

Q: What about the T/C (dose: 80.0 mg/kg/injection, schedule: Q01DX009 (ip), vehicle: Klucel (hydroxypropylcellulose) (HPC)) of the same molecule?
A: The T/C was 115 % of control.

Q: Which results are given for `CC[P+](c1ccccc1)(c1ccccc1)c1ccccc1`?
A: T/C (dose: 0.62 mg/kg/injection, schedule: Q01DX009 (ip), vehicle: saline with Tween-80): 111 % of control; T/C (dose: 1.25 mg/kg/injection, schedule: Q01DX009 (ip), vehicle: saline with Tween-80): 104 % of control; T/C (dose: 2.5 mg/kg/injection, schedule: Q01DX009 (ip), vehicle: saline with Tween-80): 112 % of control; T/C (dose: 5.0 mg/kg/injection, schedule: Q01DX009 (ip), vehicle: saline with Tween-80): 119 % of control

Q: What does the source list for `COc1cccc2c1C(=O)c1c(O)c3c(c(O)c1C2=O)C[C@@](O)(CCO)C[C@@H]3OC1CC(N)C(O)C(C)O1` (stereo not given in full)?
A: T/C (dose: 0.39 mg/kg/injection, schedule: Q01DX009 (ip), vehicle: water): 151 % of control; T/C (dose: 0.78 mg/kg/injection, schedule: Q01DX009 (ip), vehicle: water): 158 % of control and 164 % of control; T/C (dose: 1.2 mg/kg/injection, schedule: Q04DX003 (ip), vehicle: water): 119 % of control; T/C (dose: 1.56 mg/kg/injection, schedule: Q01DX009 (ip), vehicle: water): 153 % of control and 158 % of control; T/C (dose: 2.4 mg/kg/injection, schedule: Q04DX003 (ip), vehicle: water): 106 % of control and 112 % of control; T/C (dose: 3.13 mg/kg/injection, schedule: Q01DX009 (ip), vehicle: water): 163 % of control and 164 % of control; T/C (dose: 4.7 mg/kg/injection, schedule: Q04DX003 (ip), vehicle: water): 120 % of control; T/C (dose: 6.25 mg/kg/injection, schedule: Q01DX009 (ip), vehicle: water): 153 % of control; T/C (dose: 9.4 mg/kg/injection, schedule: Q04DX003 (ip), vehicle: water): 154 % of control; T/C (dose: 18.8 mg/kg/injection, schedule: Q04DX003 (ip), vehicle: water): 158 % of control; T/C (dose: 75.0 mg/kg/injection, schedule: Q04DX003 (ip), vehicle: water): 97 % of control

Q: Which results are given for `CC1CC(=O)NC(=O)N1` (stereo not given)?
A: T/C [1]: 96 % of control; T/C [2]: 102 % of control; T/C (dose: 100.0 mg/kg/injection, schedule: Q04DX003 (ip), vehicle: saline with Tween-80): 97 % of control; T/C [3]: 99 % of control; T/C (dose: 200.0 mg/kg/injection, schedule: Q04DX003 (ip), vehicle: saline with Tween-80): 94 % of control; T/C (dose: 400.0 mg/kg/injection, schedule: Q04DX003 (ip), vehicle: saline with Tween-80): 103 % of control

Q: `Cc1ccc(S(=O)(=O)CC2OCC3OC(C)(C)OC23)cc1` (stereo not given) was tested. Which T/C (dose: 12.5 mg/kg/injection, schedule: Q01DX009 (ip), vehicle: water) did it give?
A: Its T/C is 100 % of control.

Q: And the T/C (dose: 25.0 mg/kg/injection, schedule: Q01DX009 (ip), vehicle: water)?
A: Its T/C is 93 % of control.

Q: And the T/C (dose: 50.0 mg/kg/injection, schedule: Q01DX009 (ip), vehicle: water)?
A: The T/C was 89 % of control.

Q: What about the T/C (dose: 100.0 mg/kg/injection, schedule: Q01DX009 (ip), vehicle: water) of the same molecule?
A: The T/C was 100 % of control.

Q: And the T/C (dose: 200.0 mg/kg/injection, schedule: Q01DX009 (ip), vehicle: water)?
A: Its T/C is 94 % of control.

Q: With `NC1=NC(c2ccc(O)cc2O)c2[nH]cnc2N1` (stereo not given) as the molecule, how does the T/C (dose: 50.0 mg/kg/injection, schedule: Q01DX009 (ip), vehicle: saline) read?
A: Its T/C is 99 % of control.

Q: What about the T/C (dose: 100.0 mg/kg/injection, schedule: Q01DX009 (ip), vehicle: saline) of the same molecule?
A: The T/C was 100 % of control.

Q: And the T/C (dose: 200.0 mg/kg/injection, schedule: Q01DX009 (ip), vehicle: saline)?
A: The T/C was 97 % of control.

Q: What does the source list for `S=c1sc(-c2ccc(Cl)cc2)nn1CSc1nc2ccccc2[nH]1`?
A: T/C (dose: 60.0 mg/kg/injection, schedule: Q01DX005 (ip), vehicle: saline with Tween-80): 100 % of control; T/C (dose: 120.0 mg/kg/injection, schedule: Q01DX005 (ip), vehicle: saline with Tween-80): 98 % of control; T/C (dose: 240.0 mg/kg/injection, schedule: Q01DX005 (ip), vehicle: saline with Tween-80): 89 % of control

Q: `O=C1OC(c2ccccc2)N(c2ccccc2)C(=O)C1Cc1ccccc1` (stereo not given) was tested. Which T/C [4] did it give?
A: Its T/C is 103 % of control.

Q: And the T/C [5]?
A: The T/C was 98 % of control.

Q: What about the T/C [6] of the same molecule?
A: The T/C was 110 % of control.

Q: Which T/C (dose: 12.5 mg/kg/injection, schedule: Q01DX005 (ip), vehicle: saline) does the source give for `C=C1CC2(CC[N+](Cc3ccccc3)(Cc3ccccc3)CC2)OC1=O` here?
A: Its T/C is 103 % of control.

Q: What about the T/C (dose: 25.0 mg/kg/injection, schedule: Q01DX005 (ip), vehicle: saline) of the same molecule?
A: Its T/C is 103 % of control.

Q: What about the T/C (dose: 50.0 mg/kg/injection, schedule: Q01DX005 (ip), vehicle: saline) of the same molecule?
A: The T/C was 102 % of control and 97 % of control.

Q: What does the source list for `O=S(=O)(NCCSSCCNS(=O)(=O)c1ccccc1)c1ccccc1`?
A: T/C (dose: 25.0 mg/kg/injection, schedule: Q01DX009 (ip), vehicle: other): 96 % of control; T/C (dose: 50.0 mg/kg/injection, schedule: Q01DX009 (ip), vehicle: other): 98 % of control and 105 % of control; T/C (dose: 100.0 mg/kg/injection, schedule: Q01DX009 (ip), vehicle: other): 110 % of control; T/C (dose: 200.0 mg/kg/injection, schedule: Q01DX009 (ip), vehicle: other): 103 % of control and 90 % of control

Q: What does the source list for `COc1ccc2ccc3oc([N+](=O)[O-])cc3c2c1`?
A: T/C (dose: 50.0 mg/kg/injection, schedule: Q01DX005 (ip), vehicle: Klucel (hydroxypropylcellulose) (HPC)): 108 % of control; T/C (dose: 100.0 mg/kg/injection, schedule: Q01DX005 (ip), vehicle: Klucel (hydroxypropylcellulose) (HPC)): 119 % of control; T/C (dose: 400.0 mg/kg/injection, schedule: Q01DX005 (ip), vehicle: Klucel (hydroxypropylcellulose) (HPC)): 92 % of control

Q: For `S=c1[nH]ccn1-c1ccccc1Cl`, which T/C [4] is on record?
A: Its T/C is 101 % of control.

Q: What about the T/C [5] of the same molecule?
A: The T/C was 106 % of control.

Q: And the T/C [6]?
A: Its T/C is 109 % of control.

Q: For `COC(=O)c1cc(C2OC3OC(C)(C)OC3C2OC)nn1-c1ccc([N+](=O)[O-])cc1` (stereo not given), which T/C [7] is on record?
A: Its T/C is 109 % of control.

Q: And the T/C [8]?
A: Its T/C is 100 % of control.

Q: What about the T/C [9] of the same molecule?
A: Its T/C is 104 % of control.

Q: `Oc1ccccc1/C=N/Nc1ccc2ccccc2n1` was tested. Which T/C (dose: 25.0 mg/kg/injection, schedule: Q04DX003 (ip), vehicle: saline) did it give?
A: Its T/C is 96 % of control.

Q: What about the T/C (dose: 50.0 mg/kg/injection, schedule: Q04DX003 (ip), vehicle: saline) of the same molecule?
A: The T/C was 95 % of control.

Q: And the T/C (dose: 100.0 mg/kg/injection, schedule: Q04DX003 (ip), vehicle: saline)?
A: Its T/C is 102 % of control.

Q: What about the T/C (dose: 200.0 mg/kg/injection, schedule: Q04DX003 (ip), vehicle: saline) of the same molecule?
A: The T/C was 93 % of control.

Q: Which T/C (dose: 25.0 mg/kg/injection, schedule: Q04DX002 (ip), vehicle: saline) does the source give for `COc1cc2c(cc1OC)C(O)C1CCCNC1C2` (stereo not given) here?
A: Its T/C is 98 % of control.

Q: And the T/C (dose: 50.0 mg/kg/injection, schedule: Q04DX002 (ip), vehicle: saline)?
A: Its T/C is 103 % of control.

Q: And the T/C (dose: 100.0 mg/kg/injection, schedule: Q04DX002 (ip), vehicle: saline)?
A: Its T/C is 102 % of control.

Q: And the T/C (dose: 200.0 mg/kg/injection, schedule: Q04DX002 (ip), vehicle: saline)?
A: Its T/C is 102 % of control.

Q: What about the T/C (dose: 400.0 mg/kg/injection, schedule: Q04DX002 (ip), vehicle: saline) of the same molecule?
A: The T/C was 101 % of control.

Q: What does the source list for `COc1ccc2cc(O)ccc2c1`?
A: T/C [2]: 113 % of control; T/C [3]: 100 % of control; T/C (dose: 400.0 mg/kg/injection, schedule: Q01DX009 (ip), vehicle: saline with Tween-80): 90 % of control

Q: Which results are given for `COc1cc(Cc2nc3n(O)cc(-c4ccccc4)nc-3c(=N)n2)cc(OC)c1OC`?
A: T/C (dose: 12.5 mg/kg/injection, schedule: Q01DX009 (ip), vehicle: saline with Tween-80): 104 % of control; T/C (dose: 25.0 mg/kg/injection, schedule: Q01DX009 (ip), vehicle: saline with Tween-80): 108 % of control; T/C [1]: 104 % of control

Q: With `O=C1C=C(Cl)C(O)C1(Cl)Cl` (stereo not given) as the molecule, how does the T/C (dose: 6.25 mg/kg/injection, schedule: Q01DX009 (ip), vehicle: saline) read?
A: The T/C was 94 % of control.

Q: And the T/C (dose: 12.5 mg/kg/injection, schedule: Q01DX009 (ip), vehicle: saline)?
A: Its T/C is 92 % of control.

Q: How did the T/C [7] turn out when `CCCC1OCC2OC(Nc3ccccc3)C(O)C(O)C2O1` (stereo not given) was run?
A: Its T/C is 103 % of control.

Q: And the T/C [8]?
A: Its T/C is 98 % of control.

Q: What about the T/C [9] of the same molecule?
A: Its T/C is 103 % of control.

Q: For `O=C(O)Cc1ccc2c(c1)Cc1cccnc1O2`, which T/C (dose: 50.0 mg/kg/injection, schedule: Q01DX009 (ip), vehicle: Klucel (hydroxypropylcellulose) (HPC)) is on record?
A: The T/C was 108 % of control.

Q: And the T/C (dose: 100.0 mg/kg/injection, schedule: Q01DX009 (ip), vehicle: Klucel (hydroxypropylcellulose) (HPC))?
A: Its T/C is 96 % of control.

Q: What about the T/C (dose: 200.0 mg/kg/injection, schedule: Q01DX009 (ip), vehicle: Klucel (hydroxypropylcellulose) (HPC)) of the same molecule?
A: The T/C was 119 % of control.
